Data reported in article PMC8657855 (International Journal of Molecular Sciences, 2021).
Values after ≈ are worked out from the molar mass of the structure shown.

How the values were obtained:
Test in all cases: microbe, parasite or virus in culture
[1] = tested on: Xanthomonas oryzae pv. oryzicola Xoc; conditions: read-out: EC50 (mg/L) Xoc
[2] = tested on: Xanthomonas oryzae pv. oryzae Xoo; conditions: read-out: EC50 (mg/L) Xoo
[3] = tested on: Xanthomonas oryzae pv. oryzicola Xoc; conditions: for inhibition at 10 µg/mL: read-out: Inhibition (%) 10 (mg/L); for inhibition at 50 µg/mL: read-out: Inhibition (%) 50 (mg/L)
[4] = tested on: Xanthomonas oryzae pv. oryzae Xoo; conditions: for inhibition at 10 µg/mL: read-out: Inhibition (%) 10 (mg/L); for inhibition at 50 µg/mL: read-out: Inhibition (%) 50 (mg/L)

Row | Structure (SMILES) | EC50 [1] | EC50 [2] | inhibition at 10 µg/mL [3] | inhibition at 50 µg/mL [3] | inhibition at 10 µg/mL [4] | inhibition at 50 µg/mL [4]
1 | CS(=O)(=O)c1nnc(CNC(=O)c2ccc(F)cc2F)o1 [compound 23, 2,4-difluoro-N-((5-(methylsulfonyl)-1,3,4-oxadiazol-2-yl)methyl)benzamide] | 7.41 ± 1.3 mg/L (≈ 23.4 µM) | 0.8 ± 0.09 mg/L (≈ 2.52 µM) | 69.6 ± 1.8% | 99.5 ± 0.4% | 95.7 ± 1.9% | 95.4 ± 0.4%
2 | CS(=O)(=O)c1nnc(CNC(=O)c2ncc(C(F)(F)F)cc2Cl)o1 [compound 6, 3-chloro-N-((5-(methylsulfonyl)-1,3,4-oxadiazol-2-yl)methyl)-5-(trifluoromethyl)picolinamide] | 3.31 ± 0.09 mg/L (≈ 8.6 µM) | 3.49 ± 0.07 mg/L (≈ 9.07 µM) | 95.5 ± 0.8% | 99.3 ± 0.2% | 94.8 ± 1.8% | 99.7 ± 0.2%
3 | CS(=O)(=O)c1nnc(CNC(=O)c2c(F)cccc2F)o1 [compound 21, 2,6-difluoro-N-((5-(methylsulfonyl)-1,3,4-oxadiazol-2-yl)methyl)benzamide] | 1.51 ± 0.02 mg/L (≈ 4.76 µM) | 0.65 ± 0.05 mg/L (≈ 2.05 µM) | 97.1 ± 2.3% | 98.4 ± 1.1% | 97.4 ± 0.3% | 96.3 ± 0.4%
4 | CCS(=O)(=O)c1nnc(CNC(=O)c2ccc(Cl)s2)o1 [compound 4, 5-chloro-N-((5-(ethylsulfonyl)-1,3,4-oxadiazol-2-yl)methyl)thiophene-2-carb oxamide] | 0.83 ± 0.01 mg/L (≈ 2.47 µM) | 0.45 ± 0.04 mg/L (≈ 1.34 µM) | 96.9 ± 1.1% | 99 ± 0.2% | 98.3 ± 1% | 97.9 ± 1.5%
5 | CS(=O)(=O)c1nnc(CNC(=O)c2ccc(Cl)cc2)o1 [compound 24, 4-chloro-N-((5-(methylsulfonyl)-1,3,4-oxadiazol-2-yl)methyl)benzamide] | 0.9 ± 0.04 mg/L (≈ 2.85 µM) | 0.4 ± 0.03 mg/L (≈ 1.27 µM) | 96.9 ± 0.4% | 97.8 ± 2.7% | 99.9 ± 0.1% | 99.6 ± 0.2%
6 | CS(=O)(=O)c1nnc(CNC(=O)C=Cc2ccccc2)o1 [compound 8, N-((5-(methylsulfonyl)-1,3,4-oxadiazol-2-yl)methyl)cinnamamide] | 0.7 ± 0.01 mg/L (≈ 2.28 µM) | 0.73 ± 0.08 mg/L (≈ 2.38 µM) | 98.8 ± 0.7% | 92.3 ± 7.3% | 99.7 ± 0.3% | 98.9 ± 0.5%
7 | CS(=O)(=O)c1nnc(CNC(=O)C=Cc2ccc(F)cc2)o1 [compound 10, 3-(4-fluorophenyl)-N-((5-(methylsulfonyl)-1,3,4-oxadiazol-2-yl)methyl)acrylamide] | 0.53 ± 0.01 mg/L (≈ 1.63 µM) | 0.36 ± 0.03 mg/L (≈ 1.11 µM) | 99 ± 0.8% | 95.6 ± 1% | 99 ± 0.3% | 99.5 ± 0.1%
8 | S=c1[nH]nc(NCNc2n[nH]c(=S)s2)s1 [BT, Bismerthiazol] | 105.9 ± 0.56 mg/L (≈ 380 µM) | 83.1 ± 8.07 mg/L (≈ 298 µM) | 7 ± 1.7% | 27 ± 1.7% | 2.5 ± 1.6% | 27.4 ± 5%
9 | CS(=O)(=O)c1nnc(CNC(=O)C=Cc2cccs2)o1 [compound 1, N-((5-(methylsulfonyl)-1,3,4-oxadiazol-2-yl)methyl)-3-(thiophen-2-yl)acrylamide] | 0.86 ± 0.08 mg/L (≈ 2.74 µM) | 0.68 ± 0.07 mg/L (≈ 2.17 µM) | 97.3 ± 1.8% | 98.3 ± 0.9% | 96.2 ± 1.5% | 97.6 ± 1.2%
10 | Cc1ccc(C(=O)NCc2nnc(S(C)(=O)=O)o2)cc1 [compound 20, 4-methyl-N-((5-(methylsulfonyl)-1,3,4-oxadiazol-2-yl)methyl)benzamide] | 1.66 ± 0.21 mg/L (≈ 5.62 µM) | 0.63 ± 0.06 mg/L (≈ 2.13 µM) | 67.8 ± 6.8% | 99 ± 0.9% | 99.4 ± 0.3% | 99.6 ± 0.3%
11 | CCS(=O)(=O)c1nnc(CNC(=O)C=Cc2ccccc2)o1 [compound 9, N-((5-(ethylsulfonyl)-1,3,4-oxadiazol-2-yl)methyl)cinnamamide] | 0.78 ± 0.01 mg/L (≈ 2.43 µM) | 0.89 ± 0.12 mg/L (≈ 2.77 µM) | 97.1 ± 1.6% | 98 ± 1.7% | 100% | 97.6 ± 1.4%
12 | CS(=O)(=O)c1nnc(CNC(=O)C=Cc2ccc(Cl)cc2Cl)o1 [compound 16, 3-(2,4-dichlorophenyl)-N-((5-(methylsulfonyl)-1,3,4-oxadiazol-2-yl)methyl)a crylamide] | 1.15 ± 0.05 mg/L (≈ 3.06 µM) | 0.42 ± 0.05 mg/L (≈ 1.12 µM) | 99.2 ± 0.7% | 97.7 ± 0.7% | 98.9 ± 0.3% | 99 ± 0.4%
13 | CS(=O)(=O)c1nnc(CNC(=O)c2ccc(Br)o2)o1 [compound 5, 5-bromo-N-((5-(methylsulfonyl)-1,3,4-oxadiazol-2-yl)methyl)furan-2-carbox amide] | 2.59 ± 0.05 mg/L (≈ 7.4 µM) | 0.48 ± 0.01 mg/L (≈ 1.37 µM) | 99.3 ± 0.1% | 97.8 ± 2% | 96.3 ± 2.5% | 96.6 ± 0.4%
14 | CCS(=O)(=O)c1nnc(CNC(=O)C=Cc2ccc(F)cc2)o1 [compound 11, N-((5-(ethylsulfonyl)-1,3,4-oxadiazol-2-yl)methyl)-3-(4-fluorophenyl)acrylamide] | 10.8 ± 2.91 mg/L (≈ 31.7 µM) | 0.72 ± 0.05 mg/L (≈ 2.12 µM) | 50.6 ± 2.1% | 99 ± 1.3% | 98.8 ± 0.1% | 99.2 ± 0.4%
15 | Cc1ccc(C=CC(=O)NCc2nnc(S(C)(=O)=O)o2)cc1 [compound 12, N-((5-(methylsulfonyl)-1,3,4-oxadiazol-2-yl)methyl)-3-(p-tolyl)acrylamide] | 0.64 ± 0.05 mg/L (≈ 1.99 µM) | 0.52 ± 0.04 mg/L (≈ 1.62 µM) | 96.9 ± 2.3% | 95.6 ± 2.1% | 99.5 ± 0.1% | 99.8 ± 0.2%
16 | CCS(=O)(=O)c1nnc(CNC(=O)C=Cc2ccc(Cl)cc2)o1 [compound 15, 3-(4-chlorophenyl)-N-((5-(ethylsulfonyl)-1,3,4-oxadiazol-2-yl)methyl)acrylamide] | 1.45 ± 0.05 mg/L (≈ 4.08 µM) | 0.43 ± 0.04 mg/L (≈ 1.21 µM) | 97.9 ± 0.4% | 98.9 ± 0.3% | 98.1 ± 0.6% | 98.3 ± 0.2%
17 | CS(=O)(=O)c1nnc(CNC(=O)c2ccc(F)cc2)o1 [compound 26, 4-fluoro-N-((5-(methylsulfonyl)-1,3,4-oxadiazol-2-yl)methyl)benzamide] | 2.3 ± 0.06 mg/L (≈ 7.69 µM) | 0.61 ± 0.03 mg/L (≈ 2.04 µM) | 98.3 ± 1.6% | 99 ± 1% | 99.4 ± 0.2% | 99.1 ± 0.1%
18 | Cc1ccc(C(=O)NCc2nnc(S(C)(=O)=O)o2)c(C)c1 [compound 18, 2,4-dimethyl-N-((5-(methylsulfonyl)-1,3,4-oxadiazol-2-yl)methyl)benzamide] | 1.74 ± 0.11 mg/L (≈ 5.62 µM) | 0.69 ± 0.04 mg/L (≈ 2.23 µM) | 98.9 ± 1% | 96.9 ± 0.2% | 98.8 ± 0.2% | 98.2 ± 1.4%
19 | CS(=O)(=O)c1nnc(CNC(=O)c2ccc(C(F)(F)F)cc2)o1 [compound 22, N-((5-(methylsulfonyl)-1,3,4-oxadiazol-2-yl)methyl)-4-(trifluoromethyl)benz amide] | 1.7 ± 0.09 mg/L (≈ 4.87 µM) | 0.72 ± 0.05 mg/L (≈ 2.06 µM) | 90.3 ± 5.5% | 99.3 ± 0.3% | 99.7 ± 0.2% | 99.9 ± 0.1%
20 | CS(=O)(=O)c1nnc(CNC(=O)c2ccc(Cl)s2)o1 [compound 3, 5-chloro-N-((5-(methylsulfonyl)-1,3,4-oxadiazol-2-yl)methyl)thiophene-2-car boxamide] | 1.06 ± 0.04 mg/L (≈ 3.29 µM) | 0.53 ± 0.07 mg/L (≈ 1.65 µM) | 98 ± 0.2% | 98.3 ± 1.3% | 98.6 ± 0.8% | 95.8 ± 2.6%
21 | CCS(=O)(=O)c1nnc(CNC(=O)C=Cc2ccc(C)cc2)o1 [compound 13, N-((5-(ethylsulfonyl)-1,3,4-oxadiazol-2-yl)methyl)-3-(p-tolyl)acrylamide] | 0.88 ± 0.03 mg/L (≈ 2.62 µM) | 0.72 ± 0.07 mg/L (≈ 2.15 µM) | 98.1 ± 0.6% | 95.8 ± 1.2% | 99.5 ± 0.1% | 99.2 ± 0.2%
22 | CCS(=O)(=O)c1nnc(CNC(=O)c2ncc(C(F)(F)F)cc2Cl)o1 [compound 7, 3-chloro-N-((5-(ethylsulfonyl)-1,3,4-oxadiazol-2-yl)methyl)-5-(trifluoromethyl)picolinamide] | 7.58 ± 0.27 mg/L (≈ 19 µM) | 7.45 ± 0.16 mg/L (≈ 18.7 µM) | 40.1 ± 1.3% | 99.6 ± 0.2% | 48.1 ± 0.8% | 99.8 ± 0.1%
23 | CCS(=O)(=O)c1nnc(CNC(=O)c2ccc(C)cc2C)o1 [compound 19, N-((5-(ethylsulfonyl)-1,3,4-oxadiazol-2-yl)methyl)-2,4-dimethylbenzamide] | 1.69 ± 0.18 mg/L (≈ 5.23 µM) | 1.08 ± 0.11 mg/L (≈ 3.34 µM) | 98.2 ± 1% | 95.8 ± 0.8% | 97.2 ± 1.4% | 98.1 ± 0.8%
24 | CC(=CC(=O)NCc1nnc(S(C)(=O)=O)o1)c1ccccc1 [compound 17, N-((5-(methylsulfonyl)-1,3,4-oxadiazol-2-yl)methyl)-3-phenylbut-2-enamide] | 5.21 ± 0.11 mg/L (≈ 16.2 µM) | 0.54 ± 0.04 mg/L (≈ 1.68 µM) | 67.7 ± 0.9% | 94.7 ± 0.9% | 99.4 ± 0.5% | 99.7 ± 0.4%
25 | CS(=O)(=O)c1nnc(CNC(=O)C=Cc2ccc(Cl)cc2)o1 [compound 14, 3-(4-chlorophenyl)-N-((5-(methylsulfonyl)-1,3,4-oxadiazol-2-yl)methyl)acrylamide] | 0.61 ± 0.03 mg/L (≈ 1.78 µM) | 0.43 ± 0.06 mg/L (≈ 1.26 µM) | 98.8 ± 0.7% | 98.2 ± 1.1% | 97.6 ± 0.8% | –
26 | CCS(=O)(=O)c1nnc(CNC(=O)c2ccc(Cl)cc2)o1 [compound 25, 4-chloro-N-((5-(ethylsulfonyl)-1,3,4-oxadiazol-2-yl)methyl)benzamide] | 0.94 ± 0.09 mg/L (≈ 2.85 µM) | 0.82 ± 0.05 mg/L (≈ 2.49 µM) | 99.6 ± 0.3% | 98.8 ± 1% | – | 99.2 ± 0.3%
